From US8828997B2, “2,3-dihydro-1H-imidazo(1,2-a)pyrimidin-5-one derivatives, preparation thereof, and pharmaceutical use thereof” (Sanofi, priority 2009, dated 2014)

Test system: translocation of the LC3 protein in Hela GFP-LC3 cells
Assay: Translocation of the LC3 protein in Hela human cells measured by image analysis cytometry (test C, autophagy)
Type: cell-based
Details: Homo sapiens, HeLa, 2 h, EBSS + 10 μM hydroxychloroquine, cells with LC3 granulations, absolute IC50
Summary of the method: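 HeLa clone stably expressing GFP-LC3, starved in EBSS with 10 μM hydroxychloroquine plus compound (10 nM to 1 μM range, 0.1% DMSO) for 2 h at 37 °C. After PFA fixation and Hoechst staining, LC3 translocation read by image analysis cytometry; IC50 from dose-response curves, mean of 2 independent experiments.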

- IC50: 44 nM
SMILES: COc1ccc(CCN2c3nc(N4CCOCC4)cc(=O)n3C[C@@]2(C)C(F)(F)F)cc1 [Example 1, (S)-1-[2-(4-Methoxyphenyl)ethyl]-2-methyl-7-morpholin-4-yl-2-trifluoromethyl-2,3-dihydro-1H-imidazo[1,2-a]pyrimidin-5-one]
